Source: patent US20140357713A1, “ANTIMICROBIAL COMPOUNDS AND METHODS OF USE” (NexMed Holdings, Inc., priority 2012, published 2014)
Where a name gives a salt, the structure may show the parent alone.

Key:
[1] = tested on: Staphulococcus aureus (ATCC 29213); assay: Minimum inhibitory concentration (MIC) assay, Example 33; type: cell-based, Staphylococcus aureus; conditions: Staphylococcus aureus, ATCC29213, read-out: MIC S. aureus, n = 1
Method in brief: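 Broth microdilution per CLSI guidelines in CAMHB, with 2-fold serial compound dilutions. Inoculum was set to a 0.5 McFarland standard, diluted 1:100 to twice the test density, then mixed 1:2 with drug. Plates were incubated at 35° C and the MIC read per CLSI.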

Aspergillus niger = assay: Extended time kill study, Example 34 (0 to 24 h); type: cell-based
Procedure: (§1) Time kill studies. Strain suspensions were prepared as described above for the MIC test, and strain suspensions and compound solutions were mixed in the same volume. Samples were removed at specified times including 0 min, 30 sec, 1 min and 5 mins, were diluted in the test medium and streaked on agar. Colonies were counted after 24 to 48 hrs of incubation.
(§2) The time kill studies of Example 33 were extended for five compounds (Nex-59, Nex-60, Nex-61, Nex-62, and Nex-88) using the same methods at longer time periods and at higher multiples of MIC. Nex-88 is a code number for DDAIP.HCl from a different supplier.

Candida albicans = assay: Extended time kill study, Example 34 (0 to 24 h); type: cell-based
Procedure: as §1, §2

Pseudomonas aeruginosa = assay: Extended time kill study, Example 34 (0 to 24 h); type: cell-based
Procedure: as §1, §2

CCCCCCCCCCCCOC(=O)C(C)N(C)C (stereo not shown) [Nex-05, Dodecyl 2-(dimethylamino)propanoate hydrochloride]
MIC [1]: 3130 µg/mL | Viable counts in Log10 CFU/mL (Aspergillus niger; 1 × MIC, 1 h): 5.28 Log10 CFU/mL | Viable counts in Log10 CFU/mL (Aspergillus niger; 1 × MIC, 2 h): 4.78 Log10 CFU/mL | Viable counts in Log10 CFU/mL (Aspergillus niger; 1 × MIC, 4 h): 4.60 Log10 CFU/mL | Viable counts in Log10 CFU/mL (Aspergillus niger; 1 × MIC, 6 h): 4.30 Log10 CFU/mL | Viable counts in Log10 CFU/mL (Aspergillus niger; 1 × MIC, 24 h): 3.30 Log10 CFU/mL | Viable counts in Log10 CFU/mL (Aspergillus niger; 1 × MIC, 0 h): 5.41 Log10 CFU/mL | Viable counts in Log10 CFU/mL (Aspergillus niger; 2 × MIC, 1 h): 4.30 Log10 CFU/mL | Viable counts in Log10 CFU/mL (Aspergillus niger; 2 × MIC, 2 h): 4.70 Log10 CFU/mL | Viable counts in Log10 CFU/mL (Aspergillus niger; 2 × MIC, 4 h): 3 Log10 CFU/mL | Viable counts in Log10 CFU/mL (Aspergillus niger; 2 × MIC, 6 h): 4 Log10 CFU/mL | Viable counts in Log10 CFU/mL (Aspergillus niger; 2 × MIC, 24 h): <2 Log10 CFU/mL | Viable counts in Log10 CFU/mL (Aspergillus niger; 2 × MIC, 0 h): 5.38 Log10 CFU/mL | Viable counts in Log10 CFU/mL (Aspergillus niger; 4 × MIC, 1 h): 4.48 Log10 CFU/mL | Viable counts in Log10 CFU/mL (Aspergillus niger; 4 × MIC, 2 h): 4 Log10 CFU/mL | Viable counts in Log10 CFU/mL (Aspergillus niger; 4 × MIC, 4 h): 3 Log10 CFU/mL | Viable counts in Log10 CFU/mL (Aspergillus niger; 4 × MIC, 6 h): 4 Log10 CFU/mL | Viable counts in Log10 CFU/mL (Aspergillus niger; 4 × MIC, 24 h): <2 Log10 CFU/mL | Viable counts in Log10 CFU/mL (Aspergillus niger; 4 × MIC, 0 h): 5.50 Log10 CFU/mL | Viable counts in Log10 CFU/mL (Candida albicans; 1 × MIC, 1 h): 5.62 Log10 CFU/mL | Viable counts in Log10 CFU/mL (Candida albicans; 1 × MIC, 2 h): 5.60 Log10 CFU/mL | Viable counts in Log10 CFU/mL (Candida albicans; 1 × MIC, 4 h): 5.60 Log10 CFU/mL | Viable counts in Log10 CFU/mL (Candida albicans; 1 × MIC, 6 h): 6.02 Log10 CFU/mL | Viable counts in Log10 CFU/mL (Candida albicans; 1 × MIC, 24 h): >6 Log10 CFU/mL | Viable counts in Log10 CFU/mL (Candida albicans; 1 × MIC, 0 h): 5.82 Log10 CFU/mL | Viable counts in Log10 CFU/mL (Candida albicans; 2 × MIC, 1 h): 4.99 Log10 CFU/mL | Viable counts in Log10 CFU/mL (Candida albicans; 2 × MIC, 2 h): 4.88 Log10 CFU/mL | Viable counts in Log10 CFU/mL (Candida albicans; 2 × MIC, 4 h): 4.62 Log10 CFU/mL | Viable counts in Log10 CFU/mL (Candida albicans; 2 × MIC, 6 h): 4.58 Log10 CFU/mL | Viable counts in Log10 CFU/mL (Candida albicans; 2 × MIC, 24 h): 2.57 Log10 CFU/mL | Viable counts in Log10 CFU/mL (Candida albicans; 2 × MIC, 0 h): 5.81 Log10 CFU/mL | Viable counts in Log10 CFU/mL (Candida albicans; 4 × MIC, 1 h): 3.95 Log10 CFU/mL | Viable counts in Log10 CFU/mL (Candida albicans; 4 × MIC, 2 h): 3.90 Log10 CFU/mL | Viable counts in Log10 CFU/mL (Candida albicans; 4 × MIC, 4 h): <2.70 Log10 CFU/mL | Viable counts in Log10 CFU/mL (Candida albicans; 4 × MIC, 6 h): <2.70 Log10 CFU/mL | Viable counts in Log10 CFU/mL (Candida albicans; 4 × MIC, 24 h): <1 Log10 CFU/mL | Viable counts in Log10 CFU/mL (Candida albicans; 4 × MIC, 0 h): 5.79 Log10 CFU/mL | Viable counts, Pseudomonas aeruginosa time kill study (Pseudomonas aeruginosa; 1 × MIC, 1 h): <1 Log10 CFU/mL | Viable counts, Pseudomonas aeruginosa time kill study (Pseudomonas aeruginosa; 1 × MIC, 2 h): <1 Log10 CFU/mL | Viable counts, Pseudomonas aeruginosa time kill study (Pseudomonas aeruginosa; 1 × MIC, 4 h): <1 Log10 CFU/mL | Viable counts, Pseudomonas aeruginosa time kill study (Pseudomonas aeruginosa; 1 × MIC, 6 h): <1 Log10 CFU/mL | Viable counts, Pseudomonas aeruginosa time kill study (Pseudomonas aeruginosa; 1 × MIC, 24 h): <1 Log10 CFU/mL | Viable counts, Pseudomonas aeruginosa time kill study (Pseudomonas aeruginosa; 1×MIC, time 0): 5.30 Log10 CFU/mL | Viable counts, Pseudomonas aeruginosa time kill study (Pseudomonas aeruginosa; 2 × MIC, 1 h): <1 Log10 CFU/mL | Viable counts, Pseudomonas aeruginosa time kill study (Pseudomonas aeruginosa; 2 × MIC, 2 h): <1 Log10 CFU/mL | Viable counts, Pseudomonas aeruginosa time kill study (Pseudomonas aeruginosa; 2 × MIC, 4 h): <1 Log10 CFU/mL | Viable counts, Pseudomonas aeruginosa time kill study (Pseudomonas aeruginosa; 2 × MIC, 6 h): <1 Log10 CFU/mL | Viable counts, Pseudomonas aeruginosa time kill study (Pseudomonas aeruginosa; 2 × MIC, 24 h): <1 Log10 CFU/mL | Viable counts, Pseudomonas aeruginosa time kill study (Pseudomonas aeruginosa; 2 × MIC, time 0): 5.22 Log10 CFU/mL | Viable counts, Pseudomonas aeruginosa time kill study (Pseudomonas aeruginosa; 4 × MIC, 1 h): <1 Log10 CFU/mL | Viable counts, Pseudomonas aeruginosa time kill study (Pseudomonas aeruginosa; 4 × MIC, 2 h): <1 Log10 CFU/mL | Viable counts, Pseudomonas aeruginosa time kill study (Pseudomonas aeruginosa; 4 × MIC, 4 h): <1 Log10 CFU/mL | Viable counts, Pseudomonas aeruginosa time kill study (Pseudomonas aeruginosa; 4 × MIC, 6 h): <1 Log10 CFU/mL | Viable counts, Pseudomonas aeruginosa time kill study (Pseudomonas aeruginosa; 4 × MIC, 24 h): <1 Log10 CFU/mL | Viable counts, Pseudomonas aeruginosa time kill study (Pseudomonas aeruginosa; 4 × MIC, time 0): 5.26 Log10 CFU/mL
